Patent publication US11690902B2 (priority 2018, dated 2023)
“Also recorded” adds a separate entry of the source.

Assays:
[1] = tested on: human PBMCs of individuals naturally exposed to C. burnetii; format: cell-based
[2] = tested on: splenocytes from tgHLA-DR3 mice; details: in vivo; for # of mice responding: mouse
DRB1*0301 = biological target: T1, DRB1*0301 (Homo sapiens, UniProt P01903+P01911, A100K/A102G/A103R/A169T/F55Y/I96L/K41T/L162R/M171V/P40S/Q125H/Q178H/Q39Y/R42S/S66N/T106N/T262R/W38E/Y61H); test: HLA class II competition binding assay, DRB1*0301; details: peptides immunogenic in tgHLA-DR3 mice
T1 construct: purchased Benaroya Institute, Seattle, Wash

PAKINLARTYIAMED [p34]
Recognition of HLA class II peptide by any subject [1]: not recognized by any subject

IKGWQEALTRMKPGAIWEI [p8]
Human immunoreactive in at least one IGRA+ donor (category) [1]: at least one IGRA + donor

DGRLEQLNSQNQQLQ [p33]
Donors recognizing peptides recognized only within group C [1]: single
Donors recognizing peptides recognized solely by past asymptomatic subjects [1]: 1/33
Human immunoreactive in at least one IGRA+ donor (category) [1]: at least one IGRA + donor

MMEHLQNITNLVSTGRQGA [p15]
Highly antigenic / highly reactive peptide in the human cohort [1]: highly antigenic

QNAFQLQETIVSTEN [p40]
Recognition of HLA class II peptide by any subject [1]: not recognized by any subject

TGEIVKMINQAKQSIYVQG [p32]
SFU, Mouse 1/3 [2]: 64
SFU, Mouse 2/3 [2]: 70
SFU, Mouse 3/3 [2]: 28
SI (stimulation index), Mouse 1/3 [2]: 3.82
SI (stimulation index), Mouse 2/3 [2]: 4.62
SI (stimulation index), Mouse 3/3 [2]: 2.11
# of mice responding [2]: 2
Human immunoreactive in at least one IGRA+ donor (category) [1]: at least one IGRA + donor

LSSIIHKLTSFSKTEA [p38]
Highly antigenic / highly reactive peptide in the human cohort [1]: highly antigenic

SRAFLTANKNKPGVKT [p7]
Human immunoreactive in at least one IGRA+ donor (category) [1]: at least one IGRA + donor

GVAYTYNRANAGLPTNK [p45]
Highly antigenic / highly reactive peptide in the human cohort [1]: highly antigenic
Number of IGRA+ subjects recognizing the peptide [1]: 7/56
Proportion of IGRA+ donors with IFNγ recall response to the peptide, SI cutoff of 2 [1]: 12.5%

QELEVAQNKAMSDFM [p39]
Human immunoreactive in at least one IGRA+ donor (category) [1]: at least one IGRA + donor

SEQITLQTAEKVGLNVA [p1]
Donors recognizing peptides recognized only within group C [1]: multiple donors
Human immunoreactive in at least one IGRA+ donor (category) [1]: at least one IGRA + donor

VPGYRNASSKRFVAP [p46]
Highly antigenic / highly reactive peptide in the human cohort [1]: highly antigenic

IARYFMVNISQLIGEE [p21]
Number of IGRA+ subjects recognizing the peptide [1]: 8/56
Number of IGRA− subjects recognizing the peptide [1]: 3/21
Proportion of IGRA+ donors with IFNγ recall response to the peptide, SI cutoff of 2 [1]: 14.3%
Recall response frequency in IGRA− donors [1]: 14.3%

GLSWLTILKKRNNYRDSFN [p44]
Human immunoreactive in at least one IGRA+ donor (category) [1]: at least one IGRA + donor

DQRITQLKNLNSNNSDSSNDN [p49]
Recognition of HLA class II peptide by any subject [1]: not recognized by any subject

FTFRSQDSRRVQEW [p13]
Donors recognizing peptides recognized solely by past asymptomatic subjects [1]: 1/33
Human immunoreactive in at least one IGRA+ donor (category) [1]: at least one IGRA + donor

IDHLQQMTRQQVAMQTHK [p36]
Binding to DRB1*0301 in vitro (DRB1*0301): all except one (p36) also showed binding
SFU, Mouse 1/3 [2]: 52
SFU, Mouse 2/3 [2]: 55
SFU, Mouse 3/3 [2]: 0
SI (stimulation index), Mouse 1/3 [2]: 3.44
SI (stimulation index), Mouse 2/3 [2]: 3.86
SI (stimulation index), Mouse 3/3 [2]: 0.86
# of mice responding [2]: 2
Human immunoreactive in at least one IGRA+ donor (category) [1]: at least one IGRA + donor

EHTIVVNASASEAAALQ [p10]
SFU, Mouse 1/3 [2]: 256
SFU, Mouse 2/3 [2]: 82
SFU, Mouse 3/3 [2]: 43
SI (stimulation index), Mouse 1/3 [2]: 5.80
SI (stimulation index), Mouse 2/3 [2]: 4.51
SI (stimulation index), Mouse 3/3 [2]: 2.00
# of mice responding [2]: 2
Donors recognizing peptides recognized only within group C [1]: multiple donors
Human immunoreactive in at least one IGRA+ donor (category) [1]: at least one IGRA + donor

TPTFVIGNKALTKFGF [p2]
SFU, Mouse 1/3 [2]: 120
SFU, Mouse 2/3 [2]: 141
SFU, Mouse 3/3 [2]: 18
SI (stimulation index), Mouse 1/3 [2]: 6.63
SI (stimulation index), Mouse 2/3 [2]: 8.28
SI (stimulation index), Mouse 3/3 [2]: 1.53
# of mice responding [2]: 2
Highly antigenic / highly reactive peptide in the human cohort [1]: highly reactive

LKPFHFISSPTRDLQIA [p16]
SFU, Mouse 1/3 [2]: 180
SFU, Mouse 2/3 [2]: 27
SFU, Mouse 3/3 [2]: 19
SI (stimulation index), Mouse 1/3 [2]: 8.94
SI (stimulation index), Mouse 2/3 [2]: 2.05
SI (stimulation index), Mouse 3/3 [2]: 1.94
# of mice responding [2]: 1
Highly antigenic / highly reactive peptide in the human cohort [1]: highly reactive
Human immunoreactive in at least one IGRA+ donor (category) [1]: at least one IGRA + donor

VARVSRLKDNFVVLEISKGTEITVQ [p29]
Donors recognizing peptides recognized solely by past asymptomatic subjects [1]: 1/33
Human immunoreactive in at least one IGRA+ donor (category) [1]: at least one IGRA + donor

SHEVLHAMSRGVEVLA [p6]
Donors recognizing peptides recognized only within group C [1]: multiple donors

REAVLFLVTIKELLEDP [p23]
SFU, Mouse 1/3 [2]: 69
SFU, Mouse 2/3 [2]: 21
SFU, Mouse 3/3 [2]: 63
SI (stimulation index), Mouse 1/3 [2]: 2.30
SI (stimulation index), Mouse 2/3 [2]: 1.89
SI (stimulation index), Mouse 3/3 [2]: 2.47
# of mice responding [2]: 2
Highly antigenic / highly reactive peptide in the human cohort [1]: highly antigenic

DHAYKLAVSSTKSMT [p42]
Donors recognizing peptides recognized solely by past asymptomatic subjects [1]: 3/33

SDMWQALLAGKSGVK [p25]
Donors recognizing peptides recognized solely by past asymptomatic subjects [1]: 3/33
Human immunoreactive in at least one IGRA+ donor (category) [1]: at least one IGRA + donor

PDYVLNAVNHIRYKP [p14]
SFU, Mouse 1/3 [2]: 157
SFU, Mouse 2/3 [2]: 371
SFU, Mouse 3/3 [2]: 11
SI (stimulation index), Mouse 1/3 [2]: 7.94
SI (stimulation index), Mouse 2/3 [2]: 20.21
SI (stimulation index), Mouse 3/3 [2]: 1.42
# of mice responding [2]: 2
Highly antigenic / highly reactive peptide in the human cohort [1]: highly reactive; also recorded: highly antigenic

KDDILEAVANMSVMDV [p3]
Donors recognizing peptides recognized only within group C [1]: single
Human immunoreactive in at least one IGRA+ donor (category) [1]: at least one IGRA + donor

NAGIIRNKLKIQATIN [p43]
SFU, Mouse 1/3 [2]: 135
SFU, Mouse 2/3 [2]: 65
SFU, Mouse 3/3 [2]: 116
SI (stimulation index), Mouse 1/3 [2]: 4.88
SI (stimulation index), Mouse 2/3 [2]: 3.04
SI (stimulation index), Mouse 3/3 [2]: 4.48
# of mice responding [2]: 3
Donors recognizing peptides recognized solely by past asymptomatic subjects [1]: 3/33

EAVYKGFTPLKAEDIAEA [p19]
Highly antigenic / highly reactive peptide in the human cohort [1]: highly antigenic

VFNITLQKVMAPELPVL [p35]
Recognition of HLA class II peptide by any subject [1]: not recognized by any subject

AIYFIGWYANLAHIKLGIS [p9]
Recognition of HLA class II peptide by any subject [1]: not recognized by any subject

LAQYRELEAFSQFAS [p5]
Human immunoreactive in at least one IGRA+ donor (category) [1]: at least one IGRA + donor

VAKLRGDLSSIIHKL [p37]
Highly antigenic / highly reactive peptide in the human cohort [1]: highly antigenic

PITKKQLKTMSNYEVIAK [p11]
Recognition of HLA class II peptide by any subject [1]: not recognized by any subject

ISLLVFKNSHRVQLWAK [p28]
SFU, Mouse 1/3 [2]: 63
SFU, Mouse 2/3 [2]: 54
SFU, Mouse 3/3 [2]: 41
SI (stimulation index), Mouse 1/3 [2]: 3.76
SI (stimulation index), Mouse 2/3 [2]: 3.79
SI (stimulation index), Mouse 3/3 [2]: 2.63
# of mice responding [2]: 2
Donors recognizing peptides recognized solely by past asymptomatic subjects [1]: 1/33
Human immunoreactive in at least one IGRA+ donor (category) [1]: at least one IGRA + donor

AENVLIIHNKTLAHRYLA [p31]
SFU, Mouse 1/3 [2]: 0
SFU, Mouse 2/3 [2]: 14
SFU, Mouse 3/3 [2]: 84
SI (stimulation index), Mouse 1/3 [2]: 0.88
SI (stimulation index), Mouse 2/3 [2]: 1.72
SI (stimulation index), Mouse 3/3 [2]: 4.32
# of mice responding [2]: 1
Highly antigenic / highly reactive peptide in the human cohort [1]: highly reactive

LKDVVALRNQAQTAK [p41]
SFU, Mouse 1/3 [2]: 87
SFU, Mouse 2/3 [2]: 30
SFU, Mouse 3/3 [2]: 0
SI (stimulation index), Mouse 1/3 [2]: 5.06
SI (stimulation index), Mouse 2/3 [2]: 2.55
SI (stimulation index), Mouse 3/3 [2]: 0.98
# of mice responding [2]: 1
Human immunoreactive in at least one IGRA+ donor (category) [1]: at least one IGRA + donor

RLGFMSFFTKAVVEALKRF [p22]
Highly antigenic / highly reactive peptide in the human cohort [1]: highly reactive; also recorded: highly antigenic

QGHIINIGSISSHQV [p18]
Highly antigenic / highly reactive peptide in the human cohort [1]: highly antigenic
